Results: ChEMBL document CHEMBL3232934, “Synthesis of thio-heterocyclic analogues from Baylis-Hillman bromides as potent cyclooxygenase-2 inhibitors” (Bioorg Med Chem Lett, 2014)

Assays:
[1] = target: T1, Prostaglandin G/H synthase 2 (Homo sapiens, UniProt P35354); test: Inhibition of COX2 (unknown origin) by colorimetric method
T1 sequence (P35354 whole entry): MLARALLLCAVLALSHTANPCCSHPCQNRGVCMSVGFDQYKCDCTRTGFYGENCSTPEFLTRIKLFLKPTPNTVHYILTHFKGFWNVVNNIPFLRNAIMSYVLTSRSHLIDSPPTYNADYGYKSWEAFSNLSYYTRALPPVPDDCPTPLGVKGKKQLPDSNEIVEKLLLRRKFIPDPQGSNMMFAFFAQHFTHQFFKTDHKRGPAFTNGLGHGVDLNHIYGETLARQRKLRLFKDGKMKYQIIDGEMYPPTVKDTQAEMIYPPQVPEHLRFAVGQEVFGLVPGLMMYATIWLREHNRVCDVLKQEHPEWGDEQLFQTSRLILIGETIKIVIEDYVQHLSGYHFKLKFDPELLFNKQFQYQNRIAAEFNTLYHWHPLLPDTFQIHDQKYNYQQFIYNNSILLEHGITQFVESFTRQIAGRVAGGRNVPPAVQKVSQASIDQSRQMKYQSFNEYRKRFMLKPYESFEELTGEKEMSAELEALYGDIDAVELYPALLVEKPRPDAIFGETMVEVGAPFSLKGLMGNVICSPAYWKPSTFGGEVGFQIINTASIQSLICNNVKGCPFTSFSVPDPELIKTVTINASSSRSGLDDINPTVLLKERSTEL

[2] = target: T2, Prostaglandin G/H synthase 2 (Homo sapiens) (UniProt P35354); conditions: at 100 µM
T2 sequence (whole entry): T1 sequence (P35354 whole entry)
Description: Inhibition of COX2 (unknown origin) at 100 uM by colorimetric method

[3] = target: Prostaglandin G/H synthase 1 (Homo sapiens) (UniProt P23219); conditions: at 100 µM;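 also: COX-1 enzyme inhibition, read out colorimetrically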
Prostaglandin G/H synthase 1 (Homo sapiens), sequence (P23219 whole entry): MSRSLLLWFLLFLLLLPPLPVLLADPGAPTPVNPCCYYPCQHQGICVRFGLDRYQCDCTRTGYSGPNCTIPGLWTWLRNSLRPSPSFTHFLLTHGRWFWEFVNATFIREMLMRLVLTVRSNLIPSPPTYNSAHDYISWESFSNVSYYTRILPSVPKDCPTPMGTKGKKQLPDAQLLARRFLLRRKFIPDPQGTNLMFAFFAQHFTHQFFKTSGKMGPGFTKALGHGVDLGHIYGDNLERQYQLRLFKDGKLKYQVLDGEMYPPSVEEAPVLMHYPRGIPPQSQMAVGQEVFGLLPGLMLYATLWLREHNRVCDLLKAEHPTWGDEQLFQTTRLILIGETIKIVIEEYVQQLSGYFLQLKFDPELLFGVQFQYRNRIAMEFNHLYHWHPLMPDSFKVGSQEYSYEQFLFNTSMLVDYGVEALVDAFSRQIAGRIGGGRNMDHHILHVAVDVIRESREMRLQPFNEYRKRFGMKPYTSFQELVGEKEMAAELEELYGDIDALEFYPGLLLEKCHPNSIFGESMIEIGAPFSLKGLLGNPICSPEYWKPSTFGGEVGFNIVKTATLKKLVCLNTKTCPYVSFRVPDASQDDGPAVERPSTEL
Description: Inhibition of COX1 (unknown origin) at 100 uM by colorimetric method

Row | Structure (SMILES) | IC50 [1] [µM] | inhibition [2] [%] | inhibition [3] [%]
1 | CCOC(=O)/C(=C/c1cccc(Cl)c1)CSc1nc(C)cc(C)n1 | 5.88 | 78.6 | 24.4
2 | COC(=O)/C(=C/c1ccc(F)cc1)CSc1nc2ccccc2o1 |  | 72 | 47.8
3 | COC(=O)/C(=C/c1ccc(OC)cc1)CSc1nc2ccccc2o1 | 4.76 | 77.1 | 2
4 | CCOC(=O)/C(=C/c1ccc(C(C)C)cc1)CSc1nc(C)cc(C)n1 |  | 77.4 | 44.1
5 | COC(=O)/C(=C/c1ccc(Cl)cc1)CSc1nc2ccccc2o1 |  | 74.8 | 42.7
6 | COC(=O)/C(=C/c1ccc2ccccc2c1)CSc1nc2ccccc2o1 | 4.34 | 78.4 | 1
7 | CCOC(=O)/C(=C/c1cccc(Cl)c1)CSc1nc2ccccc2o1 |  | 76.7 | 50
8 | CCOC(=O)/C(=C/c1ccc(C(C)C)cc1)CSc1nc2ccccc2o1 |  | 81 | 47
9 | COC(=O)/C(=C/c1ccc(F)cc1)CSc1nc(C)cc(C)n1 |  | 71 | 50.7
10 | COC(=O)/C(=C/c1ccc(OC)cc1)CSc1nc(C)cc(C)n1 |  | 80.2 | 65.3
11 | COC(=O)/C(=C/c1ccc2ccccc2c1)CSc1nc(C)cc(C)n1 |  | 73.5 | 46.3
12 | COC(=O)/C(=C/c1ccc2ccccc2c1)CSc1nc2ccccc2s1 | 2.93 | 75.1 | 28.8
13 | CCOC(=O)/C(=C/c1ccc(Br)cc1)CSc1nc2ccccc2o1 |  | 64.7 | 54.3
14 | CCc1ccc(/C=C(\CSc2nncn2C)C(=O)OC)cc1 |  | 62.4 | 57.2
15 | CCOC(=O)/C(=C/c1ccc(Br)cc1)CSc1nc(C)cc(C)n1 | 3.17 | 78.5 | 38.3
16 | CCOC(=O)/C(=C/c1cccc(F)c1)CSc1nncn1C | 3.88 | 78.6 | 20.8
17 | COC(=O)/C(=C/c1ccc(C(F)(F)F)cc1)CSc1nc2ccccc2s1 |  | 77.5 | 51.4
18 | COC(=O)/C(=C/c1ccc(Cl)cc1)CSc1nc(C)cc(C)n1 |  | 53.5 | 50.7
19 | CCOC(=O)/C(=C/c1ccc(CC)cc1)CSc1nc(C)cc(C)n1 |  | 76.5 | 55.1
20 | COC(=O)/C(=C/c1ccc(C(F)(F)F)cc1)CSc1nc2ccccc2o1 | 2.95 | 81.9 | 39
